Read-outs that look alike come from different tables or passages of the source.
Tests used:
Type in all cases: cell-based
[1] = system: RSV-Fluc (Recombinant Respiratory Syncytial virus strain A2 containing the firefly luciferase reporter); test: microbe, parasite or virus in culture; conditions: human respiratory syncytial virus, NHBE, 72 h, read-out: RSV-Fluc EC50 (nM, NHBE)
[2] = MT4 cytotoxicity analysis (CellTiter-Glo); conditions: human
Experimental: Example 79: MT4 Cytotoxicity Analysis
3-fold serially diluted compound in DMSO, ranging from 2.5 uM to 10 mM, were added by acoustic transfer (Echo) in quadruplicate into black 384-well plates at 200 nl/well. After compound addition, 40 ul MT-4 cells at 80,000/ml were added to each well using a MicroFlo liquid dispenser (BioTek, Winooski, VT) and the cells were cultured for five days at 37° C. Following the incubation, cell viability was determined by adding 35 μL of CellTiter-Glo viability reagent and mixed thoroughly using ViaFlo 384 well workstation. The mixture was incubated for at least 10 minutes at 25° C., and the luminescence signal was quantified on an EnVision plate reader.

SARS-CoV-2 = test: microbe, parasite or virus in culture; conditions: Severe acute respiratory syndrome coronavirus 2, 48 h
[3] = MT-4 cells, five days, CellTiter-Glo, read-out: MT4 CC50

`CCCCCCCCCCCCCCCCCCOC[C@H](COP(=O)(O)OC[C@H]1O[C@@](C#N)(c2ccc3c(N)ncnn23)[C@H](O)[C@@H]1O)N(C)C(=O)c1ccc(F)c(Cl)c1` [Example 4, ((2R,3S,4R,5R)-5-(4-aminopyrrolo[2,1-f][1,2,4]triazin-7-yl)-5-cyano-3,4-dihydroxytetrahydrofuran-2-yl)methyl ((R)-2-(3-chloro-4-fluoro-N-methylbenzamido)-3-(octadecyloxy)propyl) hydrogen phosphate] gave an EC50 [1] of 540 nM, a CC50 at 5 days ([2]; MT4 CC50 (nM)) of 13000 nM and an EC50 (SARS-CoV-2) of 9400 nM.

With `CCCCCCCCCCCCCCCCCCO[C@@H](C)[C@H](COP(=O)(O)OC[C@H]1O[C@@](C#N)(c2ccc3c(N)ncnn23)[C@H](O)[C@@H]1O)OCc1ccccc1` [Example 5, ((2R,3S,4R,5R)-5-(4-aminopyrrolo[2,1-f][1,2,4]triazin-7-yl)-5-cyano-3,4-dihydroxytetrahydrofuran-2-yl)methyl ((2S,3S)-2-(benzyloxy)-3-(octadecyloxy)butyl) hydrogen phosphate] the EC50 [1] was 50 nM, the CC50 at 5 days ([2]; MT4 CC50 (nM)) was 3400 nM and the EC50 (SARS-CoV-2) was 2500 nM.

For `CCCCCCCCCCCCCCCCCCOC[C@H](COP(=O)(O)OC[C@H]1O[C@@](C#N)(c2ccc3c(N)ncnn23)[C@H](O)[C@@H]1O)SCc1ccccc1` [Example 7, ((2R,3S,4R,5R)-5-(4-aminopyrrolo[2,1-f][1,2,4]triazin-7-yl)-5-cyano-3,4-dihydroxytetrahydrofuran-2-yl)methyl ((R)-2-(benzylthio)-3-(octadecyloxy)propyl) hydrogen phosphate], the EC50 [1] was 360 nM, the CC50 at 5 days ([2]; MT4 CC50 (nM)) was 39000 nM and the EC50 (SARS-CoV-2) was 10000 nM.

For `CCCCCCCCCCCCCCCCCCO[C@H](C)[C@H](COP(=O)(O)OC[C@H]1O[C@@](C#N)(c2ccc3c(N)ncnn23)[C@H](O)[C@@H]1O)OCc1ccccc1` [Example 8, ((2R,3S,4R,5R)-5-(4-aminopyrrolo[2,1-f][1,2,4]triazin-7-yl)-5-cyano-3,4-dihydroxytetrahydrofuran-2-yl)methyl ((2S,3R)-2-(benzyloxy)-3-(octadecyloxy)butyl) hydrogen phosphate], the EC50 [1] was 160 nM, the CC50 at 5 days ([2]; MT4 CC50 (nM)) was 1800 nM and the EC50 (SARS-CoV-2) was 2900 nM.

`CCCCCCCCCCCCCCCCCCOC[C@H](COP(=O)(O)OC[C@H]1O[C@@](C#N)(c2ccc3c(N)ncnn23)[C@H](O)[C@@H]1O)N1Cc2cc(Cl)c(Cl)cc2C1` [Example 9, ((2R,3S,4R,5R)-5-(4-aminopyrrolo[2,1-f][1,2,4]triazin-7-yl)-5-cyano-3,4-dihydroxytetrahydrofuran-2-yl)methyl ((R)-2-(5,6-dichloroisoindolin-2-yl)-3-(octadecyloxy)propyl) hydrogen phosphate] showed an EC50 [1] of 490 nM, a CC50 at 5 days ([2]; MT4 CC50 (nM)) of 20000 nM and an EC50 (SARS-CoV-2) of 9000 nM.

With `CCCCCCCCCCCCCCCCCCOC[C@H](COP(=O)(O)OC[C@H]1O[C@@](C#N)(c2ccc3c(N)ncnn23)[C@H](O)[C@@H]1O)NC(=O)c1ccccc1C(=O)O` [Example 14, 2-(((2R)-1-(((((2R,3S,4R,5R)-5-(4-aminopyrrolo[2,1-f][1,2,4]triazin-7-yl)-5-cyano-3,4-dihydroxytetrahydrofuran-2-yl)methoxy)(hydroxy)phosphoryl)oxy)-3-(octadecyloxy)propan-2-yl)carbamoyl)benzoic acid] the EC50 [1] was 53 nM, the CC50 at 5 days ([2]; MT4 CC50 (nM)) was 26000 nM and the EC50 (SARS-CoV-2) was 700 nM.

`CCCCCCCCCCCCCCCCCCOC[C@H](COP(=O)(O)OC[C@H]1O[C@@](C#N)(c2ccc3c(N)ncnn23)[C@H](O)[C@@H]1O)N1C(=O)c2ccccc2C1=O` [Example 15, ((2R,3S,4R,5R)-5-(4-aminopyrrolo[2,1-f][1,2,4]triazin-7-yl)-5-cyano-3,4-dihydroxytetrahydrofuran-2-yl)methyl ((R)-2-(1,3-dioxoisoindolin-2-yl)-3-(octadecyloxy)propyl) hydrogen phosphate] gave an EC50 [1] of 140 nM, a CC50 at 5 days ([2]; MT4 CC50 (nM)) of 35000 nM and an EC50 (SARS-CoV-2) of 2500 nM.

Compound `CCCCCCCCCCCCCCCCCCOC[C@H](COP(=O)(O)OC[C@H]1O[C@@](C#N)(c2ccc3c(N)ncnn23)[C@H](O)[C@@H]1O)Nc1cccc(C#N)c1` [Example 16, ((2R,3S,4R,5R)-5-(4-aminopyrrolo[2,1-f][1,2,4]triazin-7-yl)-5-cyano-3,4-dihydroxytetrahydrofuran-2-yl)methyl ((R)-2-((3-cyanophenyl)amino)-3-(octadecyloxy)propyl) hydrogen phosphate] has an EC50 [1] of 100 nM, a CC50 at 5 days ([2]; MT4 CC50 (nM)) of 1900 nM and an EC50 (SARS-CoV-2) of 1100 nM.

Work on `CCCCCCCCCCCCCCCCCCOC[C@H](COc1ccccc1)OP(=O)(O)OC[C@H]1O[C@@](C#N)(c2ccc3c(N)ncnn23)[C@H](O)[C@@H]1O` [Example 18, ((2R,3S,4R,5R)-5-(4-aminopyrrolo[2,1-f][1,2,4]triazin-7-yl)-5-cyano-3,4-dihydroxytetrahydrofuran-2-yl)methyl ((R)-1-(octadecyloxy)-3-phenoxypropan-2-yl) hydrogen phosphate] yielded an EC50 [1] of 69 nM, a CC50 at 5 days [2, 3] of 670 nM and an EC50 (SARS-CoV-2) of 1800 nM.

Work on `CCCCCCCCCCCCCCCCCCOCCOP(=O)(O)OC[C@H]1O[C@@](C#N)(c2ccc3c(N)ncnn23)[C@H](O)[C@@H]1O` [Example 21, ((2R,3S,4R,5R)-5-(4-Aminopyrrolo[2,1-f][1,2,4]triazin-7-yl)-5-cyano-3,4-dihydroxytetrahydrofuran-2-yl)methyl (2-(octadecyloxy)ethyl) hydrogen phosphate] yielded an EC50 [1] of 250 nM, a CC50 at 5 days [2, 3] of 2300 nM and an EC50 (SARS-CoV-2) of 9100 nM.

Work on `CCCCCCCCCCCCCCCCCCO[C@H](COCc1ccccc1)COP(=O)(O)OC[C@H]1O[C@@](C#N)(c2ccc3c(N)ncnn23)[C@H](O)[C@@H]1O` [Example 22, ((2R,3S,4R,5R)-5-(4-aminopyrrolo[2,1-f][1,2,4]triazin-7-yl)-5-cyano-3,4-dihydroxytetrahydrofuran-2-yl)methyl ((R)-3-(benzyloxy)-2-(octadecyloxy)propyl) hydrogen phosphate] yielded an EC50 [1] of 150 nM, a CC50 at 5 days [2, 3] of 9600 nM and an EC50 (SARS-CoV-2) of 3900 nM.

In the case of `CCCCCCCCCCCCCCCCO[C@H](COCc1ccccc1)COP(=O)(O)OC[C@H]1O[C@@](C#N)(c2ccc3c(N)ncnn23)[C@H](O)[C@@H]1O` [Example 23, ((2R,3S,4R,5R)-5-(4-aminopyrrolo[2,1-f][1,2,4]triazin-7-yl)-5-cyano-3,4-dihydroxytetrahydrofuran-2-yl)methyl ((R)-3-(benzyloxy)-2-(hexadecyloxy)propyl) hydrogen phosphate], the EC50 [1] is reported as 83 nM, the CC50 at 5 days [2, 3] is reported as 23000 nM and the EC50 (SARS-CoV-2) is reported as 10000 nM.

Work on `CCCCCCCCCCCCCCO[C@H](COCc1ccccc1)COP(=O)(O)OC[C@H]1O[C@@](C#N)(c2ccc3c(N)ncnn23)[C@H](O)[C@@H]1O` [Example 24, ((2R,3S,4R,5R)-5-(4-Aminopyrrolo[2,1-f][1,2,4]triazin-7-yl)-5-cyano-3,4-dihydroxytetrahydrofuran-2-yl)methyl ((R)-3-(benzyloxy)-2-(tetradecyloxy)propyl) hydrogen phosphate] yielded an EC50 [1] of 73 nM, a CC50 at 5 days [2, 3] of 35000 nM and an EC50 (SARS-CoV-2) of 9900 nM.

Compound `CCCCCCCCCCCCCCCCCCOC[C@H](CO[P@@](=O)(S)OC[C@H]1O[C@@](C#N)(c2ccc3c(N)ncnn23)[C@H](O)[C@@H]1O)OCc1ccccc1` [Example 28, O-(((2R,3S,4R,5R)-5-(4-aminopyrrolo[2,1-f][1,2,4]triazin-7-yl)-5-cyano-3,4-dihydroxytetrahydrofuran-2-yl)methyl) O—((R)-2-(benzyloxy)-3-(octadecyloxy)propyl)S-hydrogen (R)-phosphorothioate] has an EC50 [1] of 190 nM, a CC50 at 5 days ([2]; MT4 CC50 (nM)) of 24000 nM and an EC50 (SARS-CoV-2) of 3800 nM.

— patent publication US12208110B2 (priority 2020, dated 2025)
